Laboratory results from patent US7785566B2, “Pharmaceutical compounds” (GE Healthcare, Inc., priority 2003, dated 2010).

Test system: ventricular extrasystoles after LAD artery occlusion
Assay: Antiarrythmic effect in a post myocardial infarction (MI) pig model (LAD ligation)
Assay type: in vivo
Source text: The pharmaceutical cPn216-[…]OH (X) was examined according to the following procedure:
A pig was anaestetised and put on artificial overpressure ventilation. Access to the heart was obtained by a midline sternotomy and removal of the anterior pericardium. The LAD artery was occluded by ligation above the 2nd branch and one of the collaterals was occluded as well. This caused development of frequent ventricular extrasystoles, known to proceed into ventricular tachycardia and fibrillation within minutes from previous experiments with the same type of preparation. […] An initial rise in mean blood pressure was noticed. Ventricular extrasystoles reappeared gradually after about 15 minutes and a new injection of 0.5 mg of the compound of formula (X) was given. […] The pig was then given a lethal dose of potassium chloride to terminate the experiment.
A similar set of observations was made in a second pig experiment.

[1] = pig, hour following second 0.5 mg injection

With `CCC(C)[C@H](NC(=O)[C@@H]1CCCN1C(=O)[C@H](Cc1cnc[nH]1)NC(=O)[C@@H](NC(=O)[C@H](Cc1ccc(O)cc1)NC(=O)[C@@H](NC(=O)[C@H](CCCNC(=N)N)NC(=O)CNCCC(CCNC(C)(C)/C(C)=N\O)CCNC(C)(C)/C(C)=N\O)C(C)C)C(C)CC)C(=O)O` (some centres unmarked) [(X)] the “Duration of QRS complexes (ECG before and after first injection)” value (pig, ECG recordings before and after the first injection) was “shortening”, the “Heart rhythm after first intravenous injection” value (pig, LAD occluded, frequent ventricular extrasystoles, i.v. 0,5 mg, within few minutes) was “Complete stabilisation of the condition with return to sinus rhythm” and the “Time until ventricular extrasystoles reappeared” value (pig, after first i.v. injection of 0,5 mg) was “about 15 minutes”. For the same molecule, the “Blood pressure during the following hour” value [1] was “slightly reduced but adequate constant”, the “Heart rhythm during the following hour” value [1] was “stable sinus rhythm” and the “Mean blood pressure after first injection” value (pig, i.v. 0,5 mg, first injection) was “initial rise”. For the same molecule, the “Heart rhythm after second injection” value (pig, new injection of 0.5 mg after reappearance of extrasystoles) was “stabilised with regular sinus rhythm” and the “Overall anti-arrythmic activity in this preparation” value (post-MI pig preparation) was “act as an anti-arrythmic drug”.
